Test results reported in publication PMC8478281, “Targeting the FtsZ Allosteric Binding Site with a Novel Fluorescence Polarization Screen, Cytological and Structural Approaches for Antibacterial Discovery” (Journal of Medicinal Chemistry, 2021).
Converted amounts (≈) assume the structure as drawn. Read-outs that look alike come from different tables or passages of the source.

What was measured:
BsFtsZ = biological target: T1, BsFtsZ (Bacillus subtilis, UniProt P17865); experiment: Fluorescence anisotropy of probes after consecutive additions of FtsZ, GMPCPP, MgCl2 and PC190723; assay type: binding; details: for Fluorescence anisotropy (r): free probe: probe 10 μM in buffer; for Fluorescence anisotropy (r): + FtsZ (unassbld.) / Fluorescence anisotropy (r): + GMPCPP / Fluorescence anisotropy (r): + MgCl2 (polymer): probe 10 μM, FtsZ 10 μM; for Fluorescence anisotropy (r): + GMPCPP / Fluorescence anisotropy (r): + MgCl2 (polymer): GMPCPP 0.1 mM; for Fluorescence anisotropy (r): + MgCl2 (polymer): MgCl2 10 mM, 5–10 min
T1 construct: made in house
Protocol: (A) Fluorescence anisotropy values of the free probes (10 μM) in buffer, to which FtsZ (10 μM, unassembled) was added, followed by the slowly hydrolyzable GTP analogue GMPCPP (0.1 mM). BsFtsZ polymerization was then induced by the addition of MgCl2 (10 mM) and anisotropy values were recorded 5–10 min later. Nonfluorescent PC190723 (10 μM) was subsequently added to displace the fluorescent probe and anisotropy was measured 5 min later. (B) Fluorescence microscopy images of B. subtilis cells treated for 1.5 h with the minimal division inhibitory concentrations (MDC) of (S)-2 and each enantiomer of 5 (Table S1), acquired employing the probe fluorescence.
(§1) FtsZ from B. subtilis (BsFtsZ) was prepared as described previously.[35] FtsZ was assembled in 50 mM N-(2-hydroxyethyl)piperazine-N′-ethanesulfonic acid (HEPES)-KOH, 50 mM KCl, 1 mM ethylenediaminetetraacetic acid (EDTA), pH 6.8 (HEPES buffer) plus 10 mM MgCl2, and 1 mM GTP or 0.1 mM GMPCPP at 25 °C. FtsZ assembly was monitored by light scattering.[34]

B. subtilis [1] = experiment: Minimal growth inhibitory concentration (broth macrodilution), B. subtilis; assay type: cell-based, Bacillus subtilis; details: for MIC B. subtilis: Table S1, fluorescent probes; for MIC: Bacillus subtilis
Protocol: (§2) B. subtilis 168 and Staphylococcus spp. were grown in cation adjusted Mueller–Hinton broth (CAMHB; Becton, Dickinson and Company) at 37 °C. B. subtilis SU570 were grown in the same medium at 30 °C. In all cases, the cells were grown to an absorbance of 0.1–0.2 at 600 nm and then incubated either with the compounds or DMSO vehicle. Microscopy assays and cell measurement were performed as previously described.[31] MIC values were determined by a broth macrodilution method.[51] MBC values were determined as the lowest concentration of inhibitor at which there was a 99.9% reduction in colony-forming units/mL compared to the inoculum. To construct a S. aureus strain expressing FtsZ-mCherry, the plasmid pCN-ftsZmch[9] was electroporated into RN4220 and 0.1 μM cadmium chloride (Sigma-Aldrich) was used to induce the expression of the construct under the control of the Pcad promoter.

S. aureus Mu50 = experiment: Minimal growth inhibitory concentration (broth macrodilution), S. aureus Mu50; assay type: cell-based, Staphylococcus aureus; details: for MIC S. aureus Mu50: Table S1, fluorescent probes; for MIC: Staphylococcus aureus, MU50, read-out: MIC S. aureus Mu50
Protocol: as §2

[2] = biological target: T2, FtsZ-GMPCPP polymers (BsFtsZ) (Bacillus subtilis, UniProt P17865); experiment: Binding titration of the fluorescent probes to FtsZ polymers by fluorescence anisotropy; details: for Imax/Imin / rmax (all probe bound) / rmin (free probe) / Kd: FtsZ-GMPCPP polymers, best fit values from binding titrations
T2 construct: made in house
Protocol: as §1
The fluorescence spectra and anisotropy values of the different probes were acquired with a Fluoromax-4 (Horiba Jobin Yvon) photon-counting L-format spectrofluorometer using 2 mm × 10 mm cells at 25 °C, employing the maximum excitation and emission wavelength for each probe with 2 and 5 nm bandwidths, respectively. Anisotropy values were automatically measured as r = (Ivv – G Ivh)/(Ivv + 2G Ivh), where the subscripts refer to the vertical (v) or horizontal (h) positions of the excitation (first subscript) and emission (second subscript) polarizers, and G = Ihv/Ihh. Total intensity values were simultaneously determined as IT = Ivv +2G Ivh. Note that measurement correction procedures with T-format (double channel) fluorometers and with plate readers are slightly different.
(§3) FtsZ (10–15 μM) was assembled in HEPES buffer, 10 mM MgCl2, 50 μM GMPCPP at 25 °C for 10 min, and then 0.15% (v/v) glutaraldehyde[36] (distilled grade for microscopy, TAAB Laboratories, U.K.) was added to the solution that was incubated at 25 °C for 10 min more. (This was the minimal glutaraldehyde concentration determined to stabilize FtsZ polymers specifically binding probe 1.) The remains of the cross-linking agent were quenched by adding 60 mM NaBH4, the sample was incubated on ice for 10 min and degassed.[36] Cross-linked polymers were centrifuged for 10 min at 8200g (5000 rpm) and 4 °C in 15 mL Falcon tubes employing a Rotina 380R (Hettich) centrifuge, the supernatant was removed and the pellet was resuspended in the same volume of HEPES buffer, 10 mM MgCl2, containing 5 μM GMPCPP. Fixed FtsZ polymers were active in binding assays after more than 2 days at 4 °C; they could also be frozen in liquid nitrogen with a small loss of binding capacity. […] Cross-linked polymers of SaFtsZ were similarly prepared.
Binding affinity of the probes to FtsZ was measured by an increase in anisotropy of the probe (adapted from ref ([49])). Fixed concentrations of the probes (3 μM) were titrated with different FtsZ polymer concentrations (0–40 μM) in HEPES buffer with Mg^2+, to obtain the anisotropy increment, Δrmax, corresponding to the bound probe. The increase in anisotropy was plotted against the FtsZ polymer concentration (calculated by subtracting from the total protein concentration the critical concentration for polymerization under the same conditions) and iteratively least-squares fitted with an isotherm of binding to one site. The estimated values of Δrmax were used to approximate the free FtsZ concentrations, and these new values were employed again until an unchanging Δrmax value was obtained. The convergent data were used to calculate the binding constant of the fluorescent probe to FtsZ polymers (Table S1).

B. subtilis [3] = experiment: Minimal division inhibitory concentration and cell division phenotype, B. subtilis; assay type: cell-based, Bacillus subtilis; details: for toxicity to the bacterial cells, in words: B. subtilis cell division tests; for minimal effective concentration: Bacillus subtilis, read-out: MDC B. subtilis
Protocol: as §2

[4] = biological target: T3, stabilized polymers of FtsZ from B. subtilis (Bacillus subtilis, UniProt P17865); experiment: Competition assay: displacement of probe (R)-5 from stabilized BsFtsZ-GMPCPP polymers; assay type: binding; details: for Kd: stabilized polymers of FtsZ from B. subtilis, probe (R)-5, mean ± SEM, read-out: KD
T3 construct: made in house
Protocol: as §3
Competition assays were performed by measuring, through the decrease in fluorescence anisotropy, the displacement of the fluorescent probes from stabilized FtsZ polymers. Increasing concentrations of competing ligands were added to the mixtures of cross-linked FtsZ polymers (10–15 μM) with probe 1 (3 μM), 7–8 μM FtsZ polymers with probe (S)-2 (3 μM), or 2–3 μM FtsZ polymers with (R)-5 (3 μM). HEPES buffer with 10 mM MgCl2 and 0.1 mM GMPCPP was employed, with a final volume of 0.5 mL, and the anisotropy measured at 25 °C. Under these conditions, the initial fraction of the probe bound was between 0.4 and 0.5. The fraction of the probe bound (Vb) was calculated [drawing 1] where rfree and rmax are the anisotropy values of the free and bound probes, respectively, and R is the ratio between the fluorescence intensities of the bound and free probe (Table S1). The binding data were plotted against the competing ligand concentration and fitted by competition equilibrium of the ligand and the probe for the same binding site. The resulting system of equations[50] was numerically solved using the Equigra v. 5.0 program,[33] which provided the best-fitted value of the competitor binding constant.

[5] = Solubility in HEPES buffer with 2% DMSO, spectrophotometric; assay type: physicochemical; details: HEPES buffer containing 2% DMSO, 25 °C, aqueous buffer, kinetic from dmso stock; HEPES buffer pH 6.8 containing 2% DMSO
Protocol: 3.2. Solubility of Compounds. Stock solutions of compounds were prepared in
DMSO (spectroscopic grade, Merck) a nd stored at -20 °C. Compound solubility in 50
mM HEPES-KOH, 50 mM KCl, 1 mM EDTA, pH 6.8 (HEPES buffer) containing 2%
DMSO was determined spectrophotometrically, monitoring the linear correlation
between the absorbance and the compound concentration and the absence of light
scattering. The solutions were optionally centrifuged at 100000 rpm for 20 min at 25 °C
in a TLA100 rotor with a Beckman Optima Max -XP ultracentrifuge.

[6] = PC190723 10 μM added to the polymer, 5 min

T3 sequence (P17865 whole entry): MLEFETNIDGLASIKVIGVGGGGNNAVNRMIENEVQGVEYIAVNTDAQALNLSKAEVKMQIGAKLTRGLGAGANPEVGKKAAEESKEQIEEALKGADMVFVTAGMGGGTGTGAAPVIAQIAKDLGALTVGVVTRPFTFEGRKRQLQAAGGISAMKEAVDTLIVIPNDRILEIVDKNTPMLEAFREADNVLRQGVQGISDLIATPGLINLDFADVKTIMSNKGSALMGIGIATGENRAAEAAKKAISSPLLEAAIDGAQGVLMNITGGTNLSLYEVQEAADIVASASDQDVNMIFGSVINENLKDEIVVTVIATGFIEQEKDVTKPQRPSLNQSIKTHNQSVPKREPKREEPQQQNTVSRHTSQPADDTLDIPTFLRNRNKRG
T1 sequence (P17865 whole entry): as above
T2 sequence (P17865 whole entry): as above

Molecule: CCCCCC(CNc1ccc([N+](=O)[O-])c2nonc12)Oc1ccc(F)c(C(N)=O)c1F (stereo not drawn) [Compound 3, 2,6-Difluoro-3-[(1-{[(7-nitro-2,1,3-benzoxadiazol-4-yl)amino]methyl}hexyl)oxy]benzamide]
- Fluorescence anisotropy (r): + PC190723 (BsFtsZ; [6]): 0.135
- Fluorescence anisotropy (r): free probe (BsFtsZ): 0.049
- Fluorescence anisotropy (r): + FtsZ (unassbld.) (BsFtsZ): 0.104
- Fluorescence anisotropy (r): + GMPCPP (BsFtsZ): 0.115
- Fluorescence anisotropy (r): + MgCl2 (polymer) (BsFtsZ): 0.261

Molecule: CCCC(CNc1ccc([N+](=O)[O-])c2nonc12)Oc1ccc(F)c(C(N)=O)c1F (stereo not drawn) [Compound 2, 2,6-Difluoro-3-[(1-{[(7-nitro-2,1,3-benzoxadiazol-4-yl)amino]methyl}butyl)oxy]benzamide]
- Fluorescence anisotropy (r): + PC190723 (BsFtsZ; [6]): 0.053
- Fluorescence anisotropy (r): free probe (BsFtsZ): 0.037
- Fluorescence anisotropy (r): + FtsZ (unassbld.) (BsFtsZ): 0.039
- Fluorescence anisotropy (r): + GMPCPP (BsFtsZ): 0.046
- Fluorescence anisotropy (r): + MgCl2 (polymer) (BsFtsZ): 0.157

Molecule: CCC[C@@H](CNc1ccc([N+](=O)[O-])c2nonc12)Oc1ccc(F)c(C(N)=O)c1F [(S)-2]
- MIC B. subtilis (B. subtilis [1]): 250 µM (≈ 105 µg/mL)
- MIC S. aureus Mu50 (S. aureus Mu50): > 250 µM
- Fluorescence anisotropy (r): + PC190723 (BsFtsZ; [6]): 0.065
- Fluorescence anisotropy (r): free probe (BsFtsZ): 0.037
- Fluorescence anisotropy (r): + FtsZ (unassbld.) (BsFtsZ): 0.041
- Fluorescence anisotropy (r): + GMPCPP (BsFtsZ): 0.044
- Fluorescence anisotropy (r): + MgCl2 (polymer) (BsFtsZ): 0.172
- Imax/Imin [2]: 2.4
- rmax (all probe bound) [2]: 0.258
- rmin (free probe) [2]: 0.028
- Kd [2]: 8 ± 1 µM

Molecule: NC(=O)c1ccc(OCc2cccc(Cl)c2)cc1 [Compound 14]
- MIC (B. subtilis [1]): > 500 µM
- toxicity to the bacterial cells, in words (B. subtilis [3]): toxic

Molecule: NC(=O)c1cccc(OCCc2cccc(Cl)c2)c1 [Compound 12]
- MIC (B. subtilis [1]; read-out: MIC B. subtilis): 100 µM (≈ 27.6 µg/mL)
- MIC (S. aureus Mu50): > 100 µM
- Kd [4]: 7.1 ± 0.5 µM
- minimal effective concentration (B. subtilis [3]): 50 µM
- solubility [5]: ≥ 100 µM

Molecule: CCC[C@H](CNc1ccc([N+](=O)[O-])c2nonc12)Oc1ccc(F)c(C(N)=O)c1F [(R)-2]
- MIC B. subtilis (B. subtilis [1]): > 250 µM
- MIC S. aureus Mu50 (S. aureus Mu50): > 250 µM
- Fluorescence anisotropy (r): + PC190723 (BsFtsZ; [6]): 0.051
- Fluorescence anisotropy (r): free probe (BsFtsZ): 0.037
- Fluorescence anisotropy (r): + FtsZ (unassbld.) (BsFtsZ): 0.046
- Fluorescence anisotropy (r): + GMPCPP (BsFtsZ): 0.050
- Fluorescence anisotropy (r): + MgCl2 (polymer) (BsFtsZ): 0.081
- Imax/Imin [2]: 1.0
- rmax (all probe bound) [2]: 0.067
- rmin (free probe) [2]: 0.038
- inhibition of B. subtilis cell division, in words (B. subtilis [3]): inactive

Molecule: CCC[C@@H](COc1ccc(F)c(C(N)=O)c1F)Nc1ccc([N+](=O)[O-])c2nonc12 [(S)-5]
- MIC B. subtilis (B. subtilis [1]): 250 µM (≈ 105 µg/mL)
- MIC S. aureus Mu50 (S. aureus Mu50): > 250 µM
- Fluorescence anisotropy (r): + PC190723 (BsFtsZ; [6]): 0.038
- Fluorescence anisotropy (r): free probe (BsFtsZ): 0.030
- Fluorescence anisotropy (r): + FtsZ (unassbld.) (BsFtsZ): 0.042
- Fluorescence anisotropy (r): + GMPCPP (BsFtsZ): 0.041
- Fluorescence anisotropy (r): + MgCl2 (polymer) (BsFtsZ): 0.096
- fold reduced affinity with respect to (R)-5 [2]: 8 fold
- Imax/Imin [2]: 1.7
- rmax (all probe bound) [2]: 0.178
- rmin (free probe) [2]: 0.025
- Kd [2]: 15 ± 2 µM

Molecule: 2,6-Difluoro-3-[(1-{[(7-nitro-2,1,3-benzoxadiazol-4-yl)amino]methyl}nonyl)-oxy]benzamide [Compound 4]
- Fluorescence anisotropy (r): + PC190723 (BsFtsZ; [6]): 0.324
- Fluorescence anisotropy (r): free probe (BsFtsZ): 0.045
- Fluorescence anisotropy (r): + FtsZ (unassbld.) (BsFtsZ): 0.130
- Fluorescence anisotropy (r): + GMPCPP (BsFtsZ): 0.186
- Fluorescence anisotropy (r): + MgCl2 (polymer) (BsFtsZ): 0.317

Molecule: NC(=O)c1cccc(OCc2cccc(Cl)c2)c1 [Compound 11]
- MIC (B. subtilis [1]; read-out: MIC B. subtilis): 50 µM (≈ 13.1 µg/mL)
- MIC (S. aureus Mu50): > 100 µM
- fold lower KD and MDC than 3-aminobenzamide analogue 6 [4]: more than 10 fold
- Kd [4]: 9.3 ± 0.5 µM
- minimal effective concentration (B. subtilis [3]): 50 µM
- solubility [5]: 100 µM (≈ 26.2 µg/mL)

Molecule: CCCN(Cc1cccc(Cl)c1)c1cccc(C(N)=O)c1 [Compound 8]
- toxicity to the bacterial cells, in words (B. subtilis [3]): toxic to the bacterial cells
- solubility [5]: 5 µM (≈ 1.51 µg/mL)

Molecule: CCCC(COc1ccc(F)c(C(N)=O)c1F)Nc1ccc([N+](=O)[O-])c2nonc12 (stereo not drawn) [Compound 5, 2,6-Difluoro-3-{2-[(4-nitro-2,1,3-benzoxadiazol-7-yl)amino]pentoxy}benzamide]
- Fluorescence anisotropy (r): + PC190723 (BsFtsZ; [PC190723] = 30 μM): 0.055
- Fluorescence anisotropy (r): free probe (BsFtsZ): 0.031
- Fluorescence anisotropy (r): + FtsZ (unassbld.) (BsFtsZ): 0.034
- Fluorescence anisotropy (r): + GMPCPP (BsFtsZ): 0.036
- Fluorescence anisotropy (r): + MgCl2 (polymer) (BsFtsZ): 0.203
